Reference: ChEMBL document CHEMBL3739323, “Design, synthesis, and biological evaluation of novel quinazolinyl-diaryl urea derivatives as potential anticancer agents” (Eur J Med Chem, 2016)
The source made the active and inactive calls. The calls are words filed in the database; no cut-off is given here.

Key:
HepG2 = assay: Antiproliferative activity against human HepG2 cells by MTT assay; assay type: functional, cell-based
A549 [1] = assay: Antiproliferative activity against human A549 cells by MTT assay; assay type: functional, cell-based
A549 [2] = assay: Selectivity index, ratio of IC50 for human BEAS2B cells to IC50 for human A549 cells; assay type: functional
A549 [3] = assay: Induction of apoptosis in human A549 cells assessed as late apoptotic cells at 5 uM after 6 hrs by Annexin-V-FITC/Propidium iodide staining based flow cytometric analysis (reference value: 0.41 +/- 0.19%); assay type: functional
A549 [4] = assay: Induction of apoptosis in human A549 cells assessed as necrotic cells at 5 uM after 6 hrs by Annexin-V-FITC/Propidium iodide staining based flow cytometric analysis (reference value: 0.28 +/- 0.09%); assay type: functional
A549 [5] = assay: Induction of apoptosis in human A549 cells assessed as viable cells at 10 uM after 6 hrs by Annexin-V-FITC/Propidium iodide staining based flow cytometric analysis (reference value: 95.48 +/- 2.03%); assay type: functional; settings: A549, 6 h, read-out: Activity
A549 [6] = assay: Induction of apoptosis in human A549 cells assessed as late apoptotic cells at 10 uM after 6 hrs by Annexin-V-FITC/Propidium iodide staining based flow cytometric analysis (reference value: 0.41 +/- 0.19%); assay type: functional
A549 [7] = assay: Induction of apoptosis in human A549 cells assessed as necrotic cells at 10 uM after 6 hrs by Annexin-V-FITC/Propidium iodide staining based flow cytometric analysis (reference value: 0.28 +/- 0.09%); assay type: functional
A549 [8] = assay: Induction of apoptosis in human A549 cells assessed as viable cells at 10 uM after 48 hrs by Annexin-V-FITC/Propidium iodide staining based flow cytometric analysis (reference value: 92.46 +/- 4.23%); assay type: functional; settings: A549, 48 h, read-out: Activity
A549 [9] = assay: Induction of apoptosis in human A549 cells assessed as early apoptotic cells at 5 uM after 48 hrs by Annexin-V/Propidium iodide dual staining based flow cytometric analysis (reference value: 3.53 +/- 0.89%); assay type: functional
A549 [10] = assay: Induction of apoptosis in human A549 cells assessed as late apoptotic cells at 5 uM after 48 hrs by Annexin-V/Propidium iodide dual staining based flow cytometric analysis (reference value: 1.44 +/- 0.43%); assay type: functional
A549 [11] = assay: Induction of apoptosis in human A549 cells assessed as early apoptotic cells at 10 uM after 48 hrs by Annexin-V/Propidium iodide dual staining based flow cytometric analysis (reference value: 3.53 +/- 0.89%); assay type: functional
A549 [12] = assay: Induction of apoptosis in human A549 cells assessed as late apoptotic cells at 10 uM after 48 hrs by Annexin-V/Propidium iodide dual staining based flow cytometric analysis (reference value: 1.44 +/- 0.43%); assay type: functional
A549 [13] = assay: Induction of apoptosis in human A549 cells assessed as necrotic cells at 10 uM after 48 hrs by Annexin-V/Propidium iodide dual staining based flow cytometric analysis (reference value: 2.57 +/- 0.39%); assay type: functional
A549 [14] = assay: Cell cycle arrest in human A549 cells assessed as accumulation at G0/G1 phase at 5 uM by propidium iodide staining based flow cytometric analysis (reference value: 63.82 +/- 2.66%); assay type: functional
A549 [15] = assay: Induction of apoptosis in human A549 cells assessed as viable cells at 20 uM after 48 hrs by Annexin-V/Propidium iodide dual staining based flow cytometric analysis (reference value: 92.46 +/- 4.23%); assay type: functional; settings: A549, 48 h, read-out: Activity
A549 [16] = assay: Induction of apoptosis in human A549 cells assessed as early apoptotic cells at 20 uM after 48 hrs by Annexin-V/Propidium iodide dual staining based flow cytometric analysis (reference value: 3.53 +/- 0.89%); assay type: functional
A549 [17] = assay: Induction of apoptosis in human A549 cells assessed as late apoptotic cells at 20 uM after 48 hrs by Annexin-V/Propidium iodide dual staining based flow cytometric analysis (reference value: 1.44 +/- 0.43%); assay type: functional
A549 [18] = assay: Cell cycle arrest in human A549 cells assessed as accumulation at G0/G1 phase at 10 uM by propidium iodide staining based flow cytometric analysis (reference value: 63.82 +/- 2.66%); assay type: functional
A549 [19] = assay: Disruption of mitochondrial membrane potential in human A549 cells assessed as ratio of green to red fluorescence intensity at 20 uM after 12 hrs by JC-1 staining based flow cytometric analysis; assay type: functional
A549 [20] = assay: Induction of cell cycle arrest in human A549 cells assessed as downregulation of p-Rb(Ser780) expression after 48 hrs by Western blot analysis; assay type: functional, cell-based
A549 [21] = assay: Induction of cell cycle arrest in human A549 cells assessed as downregulation of p-Rb(Ser807/811) expression after 48 hrs by Western blot analysis; assay type: functional, cell-based
A549 [22] = assay: Induction of apoptosis in human A549 cells assessed as upregulation of Bax expression after 48 hrs by Western blot analysis; assay type: functional, cell-based
A549 [23] = assay: Induction of apoptosis in human A549 cells assessed as upregulation of caspase-3 expression after 48 hrs by Western blot analysis; assay type: functional, cell-based
A549 [24] = assay: Induction of apoptosis in human A549 cells assessed as upregulation of caspase-8 expression after 48 hrs by Western blot analysis; assay type: functional, cell-based
[25] = molecular target: Serine/threonine-protein kinase B-raf (Homo sapiens) (UniProt P15056); assay: Inhibition of B-Raf in human A549 cells at 5 to 20 uM after 48 hrs by Western blot analysis; assay type: cell-based
[26] = molecular target: RAF proto-oncogene serine/threonine-protein kinase (Homo sapiens) (UniProt P04049); assay: Inhibition of c-Raf in human A549 cells assessed as downregulation of ERK1/2 expression after 48 hrs by Western blot analysis; assay type: cell-based
[27] = molecular target: RAF proto-oncogene serine/threonine-protein kinase (Homo sapiens) (UniProt P04049); assay: Inhibition of c-Raf in human A549 cells assessed as downregulation of phosphorylated ERK1/2 expression after 48 hrs by Western blot analysis; assay type: cell-based
A549 [28] = assay: Cell cycle arrest in human A549 cells assessed as accumulation at S phase at 5 uM by propidium iodide staining based flow cytometric analysis (reference value: 23.41 +/- 2.19%); assay type: functional
A549 [29] = assay: Cell cycle arrest in human A549 cells assessed as accumulation at G2/M phase at 5 uM by propidium iodide staining based flow cytometric analysis (reference value: 12.77 +/- 1.55%); assay type: functional
A549 [30] = assay: Cell cycle arrest in human A549 cells assessed as accumulation at G2/M phase at 20 uM by propidium iodide staining based flow cytometric analysis (reference value: 12.77 +/- 1.55%); assay type: functional
A549 [31] = assay: Induction of apoptosis in human A549 cells assessed as increase in ROS production at 20 uM after 12 hrs by DCF staining based luminescence spectrometric analysis relative to control; assay type: functional
A549 [32] = assay: Disruption of mitochondrial membrane potential in human A549 cells at 10 uM by JC-1 staining based laser scanning confocal microscopic analysis; assay type: functional, cell-based
A549 [33] = assay: Disruption of mitochondrial membrane potential in human A549 cells assessed as ratio of green to red fluorescence intensity at 20 uM after 24 hrs by JC-1 staining based flow cytometric analysis; assay type: functional
A549 [34] = assay: Effect on total Rb level in human A549 cells after 48 hrs by Western blot analysis; assay type: ADME, cell-based; settings: a549, 48 h

RAF proto-oncogene serine/threonine-protein kinase (Homo sapiens), sequence (P04049 whole entry): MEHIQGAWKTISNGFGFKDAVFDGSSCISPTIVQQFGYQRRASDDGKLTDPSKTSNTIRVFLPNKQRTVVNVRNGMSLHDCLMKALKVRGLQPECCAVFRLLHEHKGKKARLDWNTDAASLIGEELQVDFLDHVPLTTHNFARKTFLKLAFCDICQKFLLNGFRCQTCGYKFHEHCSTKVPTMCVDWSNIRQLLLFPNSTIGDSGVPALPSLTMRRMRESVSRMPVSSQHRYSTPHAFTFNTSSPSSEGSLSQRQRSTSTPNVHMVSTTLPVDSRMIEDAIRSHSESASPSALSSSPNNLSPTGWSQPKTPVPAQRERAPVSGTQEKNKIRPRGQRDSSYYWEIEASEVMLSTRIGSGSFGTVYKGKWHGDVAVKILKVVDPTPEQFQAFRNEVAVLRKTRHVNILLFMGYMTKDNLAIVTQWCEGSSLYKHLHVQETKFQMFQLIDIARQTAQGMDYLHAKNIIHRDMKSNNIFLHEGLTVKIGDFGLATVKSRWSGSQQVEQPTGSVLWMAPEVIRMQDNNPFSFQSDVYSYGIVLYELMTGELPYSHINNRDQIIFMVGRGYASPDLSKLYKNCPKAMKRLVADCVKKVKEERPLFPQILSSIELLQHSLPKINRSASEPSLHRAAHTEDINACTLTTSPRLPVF
Serine/threonine-protein kinase B-raf (Homo sapiens), sequence (P15056 whole entry): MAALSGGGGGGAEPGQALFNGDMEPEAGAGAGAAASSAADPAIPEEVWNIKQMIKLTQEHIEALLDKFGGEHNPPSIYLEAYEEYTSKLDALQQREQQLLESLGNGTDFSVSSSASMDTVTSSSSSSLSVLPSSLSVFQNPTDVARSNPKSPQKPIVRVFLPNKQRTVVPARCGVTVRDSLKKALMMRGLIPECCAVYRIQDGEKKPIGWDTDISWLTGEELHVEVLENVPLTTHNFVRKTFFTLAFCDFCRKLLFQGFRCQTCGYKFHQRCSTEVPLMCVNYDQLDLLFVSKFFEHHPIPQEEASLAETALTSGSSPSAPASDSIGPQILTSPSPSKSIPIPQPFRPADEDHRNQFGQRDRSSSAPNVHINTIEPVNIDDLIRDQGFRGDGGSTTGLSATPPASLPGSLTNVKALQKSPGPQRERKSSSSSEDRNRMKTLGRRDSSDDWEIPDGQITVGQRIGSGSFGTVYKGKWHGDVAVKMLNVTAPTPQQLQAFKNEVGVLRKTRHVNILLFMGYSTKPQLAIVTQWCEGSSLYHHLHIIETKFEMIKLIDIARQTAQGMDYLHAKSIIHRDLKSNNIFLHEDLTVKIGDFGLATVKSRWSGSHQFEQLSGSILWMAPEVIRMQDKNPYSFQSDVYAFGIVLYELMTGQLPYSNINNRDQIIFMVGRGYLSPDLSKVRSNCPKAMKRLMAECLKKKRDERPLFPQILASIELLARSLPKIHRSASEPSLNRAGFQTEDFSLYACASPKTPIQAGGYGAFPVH

## COc1cc2ncnc(NCc3cccc(NC(=O)Nc4ccc(C(C)(C)C)cc4)c3)c2cc1OC
HepG2
  IC50: 6.85 µM
A549 [1]
  IC50: 5.21 µM
A549 [2]
  Ratio IC50: >5
A549 [3]
  Activity: 5.97%
A549 [4]
  Activity: 0.44%
A549 [5]
  viability at 10 µM: 81.8%
A549 [6]
  Activity: 5.4%
A549 [7]
  Activity: 0.56%
A549 [8]
  viability at 10 µM: 67.5%
A549 [9]
  Activity: 2.54%
A549 [10]
  Activity: 7.84%
A549 [11]
  Activity: 1.83%
A549 [12]
  Activity: 7.83%
A549 [13]
  Activity: 22.9%
A549 [14]
  Activity: 66.29%
A549 [15]
  viability at 20 µM: 51.6%
A549 [16]
  Activity: 0.57%
A549 [17]
  Activity: 5.65%
A549 [18]
  Activity: 85.44%
A549 [19]
  Ratio: 75
A549 [20]
  Activity: Dose-dependent effect
A549 [21]
  Activity: Dose-dependent effect
A549 [22]
  Activity: Dose-dependent effect
A549 [23]
  Activity: Dose-dependent effect
A549 [24]
  Activity: Dose-dependent effect
[25]
  inhibition: inactive
[26]
  inhibition: Dose-dependent effect
[27]
  inhibition: Dose-dependent effect
A549 [28]
  Activity: 20.28%
A549 [29]
  Activity: 13.43%
A549 [30]
  Activity: 1.07%
A549 [31]
  Activity: 80.9%
A549 [32]
  Activity: Active
A549 [33]
  Ratio: 125
A549 [34]
  Activity: Non-toxic
